Test results published in the NIST ThermoML archive (doi:10.1021/acs.jced.7b00609).
Numbers after ± are expanded uncertainties.

Assay: wn = mass fraction of the nth substance listed
Conditions: 100 kPa, Liquid, Pycnometric method

mass density (283.15 K, w1 = 0.1527) [kg/m3]	mass density (293.15 K, w1 = 0.2052) [kg/m3]	mass density (303.15 K, w1 = 0.2653) [kg/m3]	mass density (283.15 K, w1 = 0.0851) [kg/m3]	mass density (293.15 K, w1 = 0.1354) [kg/m3]	mass density (303.15 K, w1 = 0.21) [kg/m3]	Structure (SMILES)
1052.8 ± 14	1056.2 ± 14	1057.1 ± 14				CC1=CC(=O)c2ccccc2C1=O [2-methyl-1,4-naphthalenedione] + C1COCCO1
			1052.7 ± 14	1059.7 ± 14	1061.9 ± 14	O=C1OC(=O)c2ccccc21 [isobenzofuran-1,3-dione] + C1COCCO1
